US12648946B2, “Combination of antibody-pyrrolobenzodiazepine derivative conjugate and PARP inhibitor” (DAIICHI SANKYO COMPANY, LIMITED, priority 2019, dated 2026)
Like-named read-outs stand apart in the source and are kept apart here.

T1: human claudin-6 (Homo sapiens, UniProt P56747)
T1 construct: expressed in transfected cells; host or cells: CHO-K1 cells
T1 sequence (P56747 1-220): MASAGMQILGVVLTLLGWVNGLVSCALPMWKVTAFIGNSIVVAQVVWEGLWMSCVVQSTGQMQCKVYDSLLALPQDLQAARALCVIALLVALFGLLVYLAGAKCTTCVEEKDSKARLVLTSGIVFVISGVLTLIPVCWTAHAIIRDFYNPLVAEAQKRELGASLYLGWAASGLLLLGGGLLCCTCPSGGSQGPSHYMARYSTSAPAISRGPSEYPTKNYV


Experiments:
[1] = system: human lung cancer cell line Calu-6; test: Cell growth inhibition test (1); type: cell-based; settings: Calu-6, 144 h
Protocol: (§1) The human lung cancer cell line Calu-6 obtained from ATCC (American Type Culture Collection) was used for evaluation. Cells were prepared with MEM containing 10% fetal bovine serum (GE Healthcare), MEM Non-Essential Amino Acids Solution (Thermo Fisher Scientific), and Sodium Pyruvate (Thermo Fisher Scientific) (Thermo Fisher Scientific; hereinafter, referred to as EMEM medium) to reach 1.25×10^4 cells/mL, and 80 μL portions of them were added into a 96-well cell culture microplate. After addition of the cells, the cells were cultured at 37° C. and 5% CO2 overnight.
(§2) On the next day, 10 μL portions of pyrrolobenzodiazepine derivative A, B, or C diluted with EMEM medium to 100 pM, 50 pM, 25 pM, 12.5 pM, 6.25 pM, 3.13 pM, 1.56 pM, or 0.78 pM were added to the microplate. To each well without any pyrrolobenzodiazepine derivative, 10 μL of EMEM medium was added. Further, 10 μL portions of olaparib prepared with EMEM medium to reach 2 μM were added to the microplate. To each well without olaparib, 10 μL of EMEM medium was added. Thereafter, the microplate was cultured at 37° C. and 5% CO2 for 6 days. After culturing, the microplate was taken out of the incubator, and left to stand at room temperature for 30 minutes. CellTiter-Glo Luminescent Cell Viability Assay (Promega Corporation) in an amount equivalent to that of the culture solution was added, and stirred using a plate mixer. The microplate was left to stand at room temperature for 10 minutes, and thereafter the amount of emission was measured by using a plate reader (PerkinElmer).
(§3) Cell survival rates in wells with derivative A, B, or C were calculated by using the following formula.
(§4) [formula] • a: Mean value of amounts of emission from wells with derivative A, B, or C • b: Mean value of amounts of emission from wells with medium • IC50 values were calculated by using the following formula.
(§5) [formula] • a: Concentration of derivative A, B, or C, a • b: Concentration of derivative A, B, or C, b • c: Cell survival rate when derivative A, B, or C of concentration a was added • d: Cell survival rate when derivative A, B, or C of concentration b was added • a and b satisfy a>b at points sandwiching a cell survival rate of 50%.
Cell survival rates in wells with derivative A, B, or C added together with 2 μM olaparib were calculated by using the following formula.
[formula] a: Mean value of amounts of emission from wells with derivative A, B, or C added together with 2 μM olaparib • b: Mean value of amounts of emission from wells with 2 μM olaparib • IC50 values were calculated by using the following formula.
as §5, with “and 2 μM olaparib were” for “was”

[2] = system: human pharyngeal cancer cell line FaDu; test: Cell growth inhibition test (2); type: cell-based; settings: 144 h
Protocol: as §1, with “pharyngeal” for “lung”, “FaDu” for “Calu-6”, “6.25×10^3” for “1.25×10^4”
as §2, with “reach 1” for “reach 2”
Cell survival rates in wells with derivative A, B, or […] were calculated by using the following formula.
as §4, §5
Cell survival rates in wells with derivative A, B, or C added together with 1 μM olaparib were calculated by using the following formula.
[formula] • a: Mean value of amounts of emission from wells with derivative A, B, or C added together with 1 μM olaparib • b: Mean value of amounts of emission from wells with 1 μM olaparib • IC50 values were calculated by using the following formula.
as §5, with “and 1 μM olaparib were” for “was”

[3] = system: human pharyngeal cancer cell line FaDu; test: Cell growth inhibition test (3); type: cell-based; settings: 144 h
Protocol: as §1, with “pharyngeal” for “lung”, “FaDu” for “Calu-6”, “6.25×10^3” for “1.25×10^4”
as §2, with “talazoparib” for “olaparib”, “nM” for “μM”, “talazoparib,” for “olaparib,”
as §3, §4, §5
Cell survival rates in wells with derivative A, B, or C added together with 2 nM talazoparib were calculated by using the following formula.
[formula] • a: Mean value of amounts of emission from wells with derivative A, B, or C added together with 2 nM talazoparib • b: Mean value of amounts of emission from wells with 2 nM talazoparib • IC50 values were calculated by using the following formula.
as §5, with “and 2 nM talazoparib were” for “was”

[4] = system: human ovarian cancer cell line OV-90; test: Antitumor test (4), subcutaneous xenograft; type: in vivo, mouse; settings: single administration
Protocol: Mouse: Five- to six-week-old female BALB/c nude mice (Charles River Laboratories Japan, Inc.) were subjected to experiment.
Assay and calculation formula: In all of the studies, the major axis and minor axis of a tumor were measured twice a week by using an electronic digital caliper (CD-15CX, Mitutoyo Corp.), and the tumor volume (mm^3) was calculated. The calculation formula is as shown below.
Each of the anti-CLDN6 antibody-drug conjugate ADC1, the anti-HER2 antibody-drug conjugate ADC2, and the anti-TROP2 antibody-drug conjugate ADC3 was diluted with ABS buffer (10 mM acetate buffer (pH 5.5), 5% sorbitol), and a liquid volume of 10 mL/kg was intravenously administered into the tail vein. Olaparib was dissolved in Dimethyl sulfoxide (DMSO), diluted with 10% 2-hydroxy-propyl-β-cyclodextrin (Sigma-Aldrich Co. LLC)/Dulbecco's Phosphate-Buffered Saline, and then a liquid volume of 10 mL/kg was intraperitoneally administered. Talazoparib was dissolved in DMSO, diluted with 10% N,N-dimethylacetamide/5% Kolliphor HS15 (Sigma-Aldrich Co. LLC)/Dulbecco's Phosphate-Buffered Saline, and then a liquid volume of 10 mL/kg was orally administered. […]

[5] = biological target: T1, human claudin-6; test: FACS analysis of hybridoma antibodies on claudin-6 forced-expression cells; type: binding; settings: human claudin-6-expressing CHO-K1 cells, cDNA transfection
Protocol: Since the antigen for the 218B1 antibody and 218C7 antibody was estimated to be claudin-6 from the mass spectrometry, forced expression analysis by cDNA transfection was carried out.

[6] = system: BxPC-3, human pancreatic cancer cell line of human CLDN6-negative cells; test: Internalization activity of antibodies (Mab-ZAP, CellTiter-Glo); type: cell-based; settings: antibody 1 nM with Mab-ZAP 0.5 nM, 5 days
Protocol: (§6) Internalization activity of the mouse anti-CLDN6 antibodies B1 and C7 was evaluated by using the anti-mouse IgG reagent, to which a toxin that inhibits protein synthesis (saporin) had been conjugated, Mab-ZAP (Advanced Targeting Systems). In this evaluation, Mab-ZAP is incorporated into cells in a manner depending on the internalization activity of a mouse anti-CLDN6 antibody, and saporin, which inhibits protein synthesis, is released in the cells to suppress cell growth.
(§7) JEG-3 (ATCC HTB-36), a human choriocarcinoma cell line of human CLDN6-positive cells, NIH: OVCAR-3 (ATCC HTB-161), a human ovarian cancer cell line of human CLDN6-positive cells, or BxPC-3 (ATCC CRL-1687), a human pancreatic cancer cell line of human CLDN6-negative cells, was seeded in a 96-well cell culture microplate at 2×10^3 cells/well, and cultured under conditions of 37° C. and 5% CO2 overnight. On the next day, a mixed solution obtained by mixing each mouse anti-CLDN6 antibody or mouse IgG1 antibody (R&D Systems, Inc.) to a final concentration of 1 nM, with Mab-ZAP (final concentration: 0.5 nM) or AffiniPure Goat Anti-Mouse IgG, Fcγ Fragment Specific (Jackson ImmunoResearch Laboratories Inc.) (final concentration: 0.5 nM), without conjugated toxin, was added, and the cells were cultured under conditions of 37° C. and 5% CO2 for 5 days. The number of surviving cells was determined through quantification of ATP activity by using CellTiter-Glo Luminescent Cell Viability Assay (Promega Corporation).

[7] = system: JEG-3, human choriocarcinoma cell line of human CLDN6-positive cells; test: as above; type: cell-based; settings: antibody 1 nM with Mab-ZAP 0.5 nM, 5 days
Protocol: as §6, §7

[8] = system: NIH: OVCAR-3, human ovarian cancer cell line of human CLDN6-positive cells; test: as above; type: cell-based; settings: antibody 1 nM with Mab-ZAP 0.5 nM, 5 days
Protocol: as §6, §7

[9] = read-out: IC50, growth-suppressing effect, added singly, Calu-6, 6 days
[10] = read-out: IC50, growth-suppressing effect, added together with 2 μM olaparib, Calu-6, 6 days
[11] = read-out: IC50, growth-suppressing effect, added singly, FaDu, 6 days (test 2)
[12] = read-out: IC50, growth-suppressing effect, added together with 1 μM olaparib, FaDu, 6 days
[13] = read-out: IC50, growth-suppressing effect, added singly, FaDu, 6 days (test 3)
[14] = read-out: IC50, growth-suppressing effect, added together with 2 nM talazoparib, FaDu, 6 days

FACS reaction [5] | Molecule | IC50 [1, 9] | IC50 [1, 10] | IC50 [2, 11] | IC50 [2, 12] | IC50 [3, 13] | IC50 [3, 14] | findings such as weight loss ([4]; Day 21, OV-90 model) | tumor growth inhibition (TGI) ([4]; niraparib 75 mg/kg oral for 5 days from Day 0, Day 21, OV-90) | Cell growth-suppressing effect (internalization activity) [6] | Cell growth-suppressing effect (internalization activity) [7] | Cell growth-suppressing effect (internalization activity) [8]
– | COc1cc2c(cc1OCCCCCOc1cc3c(cc1OC)C(=O)N1CC4(CC4)C[C@H]1CN3)N=C[C@@H]1CC3(CC3)CN1C2=O [derivative B, (11a′S)-7′-Methoxy-8′-[(5-{[(11a′S)-7′-methoxy-5′-oxo-5′,11a′-dihydro-1′H-spiro[cyclopropane-1,2′-pyrrolo[2,1-c][1,4]benzodiazepine]-8′-yl]oxy}pentyl)oxy]-1′,10′,11′,11a′-tetrahydro-5′H-spiro[cyclopropane-1,2′-pyrrolo[2,1-c][1,4]benzodiazepine]-5′-one] | 0.12 nM | 0.0794 nM | 0.123 nM | 0.0719 nM | 0.121 nM | 0.0821 nM | – | – | – | – | –
– | COc1ccc(C2=CN3C(=O)c4cc(OC)c(OCCCOc5cc6c(cc5OC)C(=O)N5CC7(CC7)C[C@H]5C=N6)cc4NC[C@@H]3C2)cc1 [derivative C, (11a′S)-7′-Methoxy-8′-(3-{[(11aS)-7-methoxy-2-(4-methoxyphenyl)-5-oxo-5,10,11,11a-tetrahydro-1H-pyrrolo[2,1-c][1,4]benzodiazepin-8-yl]oxy}propoxy)-1′,11a′-dihydro-5′H-spiro[cyclopropane-1,2′-pyrrolo[2,1-c][1,4]benzodiazepine]-5′-one] | 0.113 nM | 0.0894 nM | 0.0732 nM | 0.0445 nM | 0.0831 nM | 0.0512 nM | – | – | – | – | –
– | NC(=O)c1cccc2cn(-c3ccc([C@@H]4CCCNC4)cc3)nc12 [niraparib] | – | – | – | – | – | – | no particularly significant finding such as weight loss | 1% | – | – | –
strong positive reaction | B1: mouse anti-CLDN6 antibody from hybridoma 218B1; heavy chain variable region SEQ ID NO: 21, light chain SEQ ID NO: 19 (antibody, listed as Mus musculus, V domains shown, amino acid sequence of variable region of B1 antibody heavy chain; amino acid sequence of variable region of B1 antibody light chain) VH: EVQLQQSGPELVKPGASVKISCKTSGYTFTEYTMHWVQQSHGKSLEWIGGVNPNSGDTSYNQKFKGKATLTVDKSSSTAYMELRSLTSEDSAVYYCARPGGYDVGYYAMDYWGQGTSVTVSS VL: DIQMTQTASSLSASLGDRVTISCRASQDINNYLNWYQQKPDGTVKLLIYFTSRLHSGVPSRFSGSGSGTHYSLTITNLEQEDIATYFCQQGYPLPWTFGGGTKLEIK | – | – | – | – | – | – | – | – | no cell growth-suppressing effect | cell growth-suppressing effect | cell growth-suppressing effect
